According to patent US20110028566A1, “COMPOSITIONS AND PRODUCTS CONTAINING CYCLOALIPHATIC DIOL ANTIMICROBIAL AGENTS AND METHODS OF USING THE COMPOSITIONS AND PRODUCTS” (EASTMAN CHEMICAL COMPANY, priority 2009, published 2011):

What was measured:
Assay in all cases: Microbial challenge testing in BPW
Format in all cases: cell-based
Escherichia coli = conditions: for Grade code, E. coli, 3 Day / Grade code, E. coli, 14 Day / Grade code, E. coli, 30 Day: BPW, w/v % in label, average of replicates
How it was run: (§1)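 Test materials, dosed as w/v % in BPW pH 7.0 with 1% dextrose, were challenged with bacteria at 10^5–10^6 cfu/mL starting count. Inocula came from 96 h or longer TSB-dextrose cultures, and counts were checked by PCA spread-plating. Samples were incubated 14 days at 35 °C, then at ambient temperature.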

Pseudomonas aeruginosa = conditions: for Grade code, P. aeruginosa, 3 Days / Grade code, P. aeruginosa, 13 Days / Grade code, P. aeruginosa, 30 Days: BPW, w/v % in label, average of replicates
How it was run: as §1

[1] = system: Staphylococcus epidermidis; conditions: for Grade code, S. epidermidis, 3 Days / Grade code, S. epidermidis, 13 Days / Grade code, S. epidermidis, 30 Days: BPW, w/v % in label, average of replicates
How it was run: as §1

Streptococcus mutans = conditions: for Grade code, S. mutans, 3 Day / Grade code, S. mutans, 13 Day / Grade code, S. mutans, 30 Days: BPW, w/v % in label, average of replicates
How it was run: as §1

[2] = 3 days incubation, listed as 0.5% AB
[3] = 3 days incubation, listed as 1.25% AB
[4] = 3 days incubation, listed as 2.5% AB
[5] = 30 days incubation, listed as 0.5% AB
[6] = 30 days incubation, listed as 1.25% AB
[7] = 30 days incubation, listed as 2.5% AB
[8] = 13 days incubation, listed as 0.5% AB
[9] = 13 days incubation, listed as 1.25% AB
[10] = 13 days incubation, listed as 2.5% AB

Structure (SMILES): OCC1CCC(CO)CC1 (stereo not drawn) [1,4-CHDM, 1,4-cyclohexanedimethanol]
- Grade code E. coli (Escherichia coli; 0.5%, 3 days incubation): 5 (More than 10,000 colonies estimated (thus >100,000 cfu/mL))
- Grade code E. coli (Escherichia coli; 0.5%, 14 days incubation): 4 (1001 to 10,000 colonies (thus 10,000 cfu/mL to 100,000 cfu/mL))
- Grade code E. coli (Escherichia coli; 0.5%, 30 days incubation): 4 (1001 to 10,000 colonies (thus 10,000 cfu/mL to 100,000 cfu/mL))
- Grade code E. coli (Escherichia coli; 1.25%, 3 days incubation): 4 (1001 to 10,000 colonies (thus 10,000 cfu/mL to 100,000 cfu/mL))
- Grade code E. coli (Escherichia coli; 1.25%, 14 days incubation): 4 (1001 to 10,000 colonies (thus 10,000 cfu/mL to 100,000 cfu/mL))
- Grade code E. coli (Escherichia coli; 1.25%, 30 days incubation): 4 (1001 to 10,000 colonies (thus 10,000 cfu/mL to 100,000 cfu/mL))
- Grade code E. coli (Escherichia coli; 2.5%, 3 days incubation): 3 (101 to 1000 colonies (thus 1000 to 10,000 cfu/mL))
- Grade code E. coli (Escherichia coli; 2.5%, 14 days incubation): 2 (52 to 100 colonies counted (thus 520 to 1000 cfu/mL))
- Grade code E. coli (Escherichia coli; 2.5%, 30 days incubation): 0 (No growth detected or <1 colony (thus <10 cfu/mL))
- Grade code, E. coli, 3 Day (Escherichia coli; [2]): 5 (More than 10,000 colonies estimated (thus >100,000 cfu/mL))
- Grade code, E. coli, 3 Day (Escherichia coli; [3]): 4 (1001 to 10,000 colonies (thus 10,000 cfu/mL to 100,000 cfu/mL))
- Grade code, E. coli, 3 Day (Escherichia coli; [4]): 3 (101 to 1000 colonies (thus 1000 to 10,000 cfu/mL))
- Grade code, E. coli, 14 Day (Escherichia coli; 14 days incubation, listed as 0.5% AB): 4 (1001 to 10,000 colonies (thus 10,000 cfu/mL to 100,000 cfu/mL))
- Grade code, E. coli, 14 Day (Escherichia coli; 14 days incubation, listed as 1.25% AB): 4 (1001 to 10,000 colonies (thus 10,000 cfu/mL to 100,000 cfu/mL))
- Grade code, E. coli, 14 Day (Escherichia coli; 14 days incubation, listed as 2.5% AB): 2 (52 to 100 colonies counted (thus 520 to 1000 cfu/mL))
- Grade code, E. coli, 30 Day (Escherichia coli; [5]): 4 (1001 to 10,000 colonies (thus 10,000 cfu/mL to 100,000 cfu/mL))
- Grade code, E. coli, 30 Day (Escherichia coli; [6]): 4 (1001 to 10,000 colonies (thus 10,000 cfu/mL to 100,000 cfu/mL))
- Grade code, E. coli, 30 Day (Escherichia coli; [7]): 0 (No growth detected or <1 colony (thus <10 cfu/mL))
- Grade code P. aeruginosa (Pseudomonas aeruginosa; 0.5%, 3 days incubation): 4 (1001 to 10,000 colonies (thus 10,000 cfu/mL to 100,000 cfu/mL))
- Grade code P. aeruginosa (Pseudomonas aeruginosa; 0.5%, 13 days incubation): 4 (1001 to 10,000 colonies (thus 10,000 cfu/mL to 100,000 cfu/mL))
- Grade code P. aeruginosa (Pseudomonas aeruginosa; 0.5%, 30 days incubation): 4 (1001 to 10,000 colonies (thus 10,000 cfu/mL to 100,000 cfu/mL))
- Grade code P. aeruginosa (Pseudomonas aeruginosa; 1.25%, 3 days incubation): 4 (1001 to 10,000 colonies (thus 10,000 cfu/mL to 100,000 cfu/mL))
- Grade code P. aeruginosa (Pseudomonas aeruginosa; 1.25%, 13 days incubation): 3 (101 to 1000 colonies (thus 1000 to 10,000 cfu/mL))
- Grade code P. aeruginosa (Pseudomonas aeruginosa; 1.25%, 30 days incubation): 4 (1001 to 10,000 colonies (thus 10,000 cfu/mL to 100,000 cfu/mL))
- Grade code P. aeruginosa (Pseudomonas aeruginosa; 2.5%, 3 days incubation): 3 (101 to 1000 colonies (thus 1000 to 10,000 cfu/mL))
- Grade code P. aeruginosa (Pseudomonas aeruginosa; 2.5%, 13 days incubation): 2 (52 to 100 colonies counted (thus 520 to 1000 cfu/mL))
- Grade code P. aeruginosa (Pseudomonas aeruginosa; 2.5%, 30 days incubation): 0 (No growth detected or <1 colony (thus <10 cfu/mL))
- Grade code, P. aeruginosa, 3 Days (Pseudomonas aeruginosa; [2]): 4 (1001 to 10,000 colonies (thus 10,000 cfu/mL to 100,000 cfu/mL))
- Grade code, P. aeruginosa, 3 Days (Pseudomonas aeruginosa; [3]): 4 (1001 to 10,000 colonies (thus 10,000 cfu/mL to 100,000 cfu/mL))
- Grade code, P. aeruginosa, 3 Days (Pseudomonas aeruginosa; [4]): 3 (101 to 1000 colonies (thus 1000 to 10,000 cfu/mL))
- Grade code, P. aeruginosa, 13 Days (Pseudomonas aeruginosa; [8]): 4 (1001 to 10,000 colonies (thus 10,000 cfu/mL to 100,000 cfu/mL))
- Grade code, P. aeruginosa, 13 Days (Pseudomonas aeruginosa; [9]): 3 (101 to 1000 colonies (thus 1000 to 10,000 cfu/mL))
- Grade code, P. aeruginosa, 13 Days (Pseudomonas aeruginosa; [10]): 2 (52 to 100 colonies counted (thus 520 to 1000 cfu/mL))
- Grade code, P. aeruginosa, 30 Days (Pseudomonas aeruginosa; [5]): 4 (1001 to 10,000 colonies (thus 10,000 cfu/mL to 100,000 cfu/mL))
- Grade code, P. aeruginosa, 30 Days (Pseudomonas aeruginosa; [6]): 4 (1001 to 10,000 colonies (thus 10,000 cfu/mL to 100,000 cfu/mL))
- Grade code, P. aeruginosa, 30 Days (Pseudomonas aeruginosa; [7]): 0 (No growth detected or <1 colony (thus <10 cfu/mL))
- Grade code S. epidermidis ([1]; 0.5%, 3 days incubation): 4 (1001 to 10,000 colonies (thus 10,000 cfu/mL to 100,000 cfu/mL))
- Grade code S. epidermidis ([1]; 0.5%, 13 days incubation): 4 (1001 to 10,000 colonies (thus 10,000 cfu/mL to 100,000 cfu/mL))
- Grade code S. epidermidis ([1]; 0.5%, 30 days incubation): 4 (1001 to 10,000 colonies (thus 10,000 cfu/mL to 100,000 cfu/mL))
- Grade code S. epidermidis ([1]; 1.25%, 3 days incubation): 2 (52 to 100 colonies counted (thus 520 to 1000 cfu/mL))
- Grade code S. epidermidis ([1]; 1.25%, 13 days incubation): 0.7
- Grade code S. epidermidis ([1]; 1.25%, 30 days incubation): 2 (52 to 100 colonies counted (thus 520 to 1000 cfu/mL))
- Grade code S. epidermidis ([1]; 2.5%, 3 days incubation): 0.7
- Grade code S. epidermidis ([1]; 2.5%, 13 days incubation): 0 (No growth detected or <1 colony (thus <10 cfu/mL))
- Grade code S. epidermidis ([1]; 2.5%, 30 days incubation): 0 (No growth detected or <1 colony (thus <10 cfu/mL))
- Grade code, S. epidermidis, 3 Days [1, 2]: 4 (1001 to 10,000 colonies (thus 10,000 cfu/mL to 100,000 cfu/mL))
- Grade code, S. epidermidis, 3 Days [1, 3]: 2 (52 to 100 colonies counted (thus 520 to 1000 cfu/mL))
- Grade code, S. epidermidis, 3 Days [1, 4]: 0.7
- Grade code, S. epidermidis, 13 Days [1, 8]: 4 (1001 to 10,000 colonies (thus 10,000 cfu/mL to 100,000 cfu/mL))
- Grade code, S. epidermidis, 13 Days [1, 9]: 0.7
- Grade code, S. epidermidis, 13 Days [1, 10]: 0 (No growth detected or <1 colony (thus <10 cfu/mL))
- Grade code, S. epidermidis, 30 Days [1, 5]: 4 (1001 to 10,000 colonies (thus 10,000 cfu/mL to 100,000 cfu/mL))
- Grade code, S. epidermidis, 30 Days [1, 6]: 2 (52 to 100 colonies counted (thus 520 to 1000 cfu/mL))
- Grade code, S. epidermidis, 30 Days [1, 7]: 0 (No growth detected or <1 colony (thus <10 cfu/mL))
- Grade code S. mutans (Streptococcus mutans; 0.5%, 3 days incubation): 4 (1001 to 10,000 colonies (thus 10,000 cfu/mL to 100,000 cfu/mL))
- Grade code S. mutans (Streptococcus mutans; 0.5%, 13 days incubation): 4 (1001 to 10,000 colonies (thus 10,000 cfu/mL to 100,000 cfu/mL))
- Grade code S. mutans (Streptococcus mutans; 0.5%, 30 days incubation): 4 (1001 to 10,000 colonies (thus 10,000 cfu/mL to 100,000 cfu/mL))
- Grade code S. mutans (Streptococcus mutans; 1.25%, 3 days incubation): 4 (1001 to 10,000 colonies (thus 10,000 cfu/mL to 100,000 cfu/mL))
- Grade code S. mutans (Streptococcus mutans; 1.25%, 13 days incubation): 2 (52 to 100 colonies counted (thus 520 to 1000 cfu/mL))
- Grade code S. mutans (Streptococcus mutans; 1.25%, 30 days incubation): 2 (52 to 100 colonies counted (thus 520 to 1000 cfu/mL))
- Grade code S. mutans (Streptococcus mutans; 2.5%, 3 days incubation): 2 (52 to 100 colonies counted (thus 520 to 1000 cfu/mL))
- Grade code S. mutans (Streptococcus mutans; 2.5%, 13 days incubation): 0 (No growth detected or <1 colony (thus <10 cfu/mL))
- Grade code S. mutans (Streptococcus mutans; 2.5%, 30 days incubation): 0 (No growth detected or <1 colony (thus <10 cfu/mL))
- Grade code, S. mutans, 3 Day (Streptococcus mutans; [2]): 4 (1001 to 10,000 colonies (thus 10,000 cfu/mL to 100,000 cfu/mL))
- Grade code, S. mutans, 3 Day (Streptococcus mutans; [3]): 4 (1001 to 10,000 colonies (thus 10,000 cfu/mL to 100,000 cfu/mL))
- Grade code, S. mutans, 3 Day (Streptococcus mutans; [4]): 2 (52 to 100 colonies counted (thus 520 to 1000 cfu/mL))
- Grade code, S. mutans, 13 Day (Streptococcus mutans; [8]): 4 (1001 to 10,000 colonies (thus 10,000 cfu/mL to 100,000 cfu/mL))
- Grade code, S. mutans, 13 Day (Streptococcus mutans; [9]): 2 (52 to 100 colonies counted (thus 520 to 1000 cfu/mL))
- Grade code, S. mutans, 13 Day (Streptococcus mutans; [10]): 0 (No growth detected or <1 colony (thus <10 cfu/mL))
- Grade code, S. mutans, 30 Days (Streptococcus mutans; [5]): 4 (1001 to 10,000 colonies (thus 10,000 cfu/mL to 100,000 cfu/mL))
- Grade code, S. mutans, 30 Days (Streptococcus mutans; [6]): 2 (52 to 100 colonies counted (thus 520 to 1000 cfu/mL))
- Grade code, S. mutans, 30 Days (Streptococcus mutans; [7]): 0 (No growth detected or <1 colony (thus <10 cfu/mL))
